Data published in PubChem BioAssay (NCI).
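Interpolation was linear, between the two tested concentrations surrounding the appropriate level; five concentrations were tested over 48 hours in 96-well plates. The concentration for full growth arrest is given as TGI.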

Legend:
Test in all cases: NCI anticancer screen, dose series, 48 h
SK-MEL-5 melanoma = tested on: SK-MEL-5 melanoma
SW-620 colon = tested on: SW-620 colon
SF-539 CNS = tested on: SF-539 CNS
SK-MEL-2 melanoma = tested on: SK-MEL-2 melanoma
OVCAR-8 ovarian = tested on: OVCAR-8 ovarian
TK-10 renal = tested on: TK-10 renal
HCT-15 colon = tested on: HCT-15 colon
KM12 colon = tested on: KM12 colon
EKVX NSCLC = tested on: EKVX NSCLC
NCI-H23 lung = tested on: NCI-H23 lung
UACC-257 melanoma = tested on: UACC-257 melanoma
OVCAR-4 ovarian = tested on: OVCAR-4 ovarian
SR leukemia = tested on: SR leukemia
MCF7 breast = tested on: MCF7 breast
DU-145 prostate = tested on: DU-145 prostate
HCC-2998 colon = tested on: HCC-2998 colon
HL-60(TB) leukemia = tested on: HL-60(TB) leukemia
OVCAR-5 ovarian = tested on: OVCAR-5 ovarian
NCI-H460 lung = tested on: NCI-H460 lung
A549 NSCLC = tested on: A549 NSCLC
SK-MEL-28 melanoma = tested on: SK-MEL-28 melanoma
ACHN renal = tested on: ACHN renal
IGROV1 ovarian = tested on: IGROV1 ovarian
HT29 colon = tested on: HT29 colon
HOP-62 NSCLC = tested on: HOP-62 NSCLC
MDA-N = tested on: MDA-N
HS 578T breast = tested on: HS 578T breast
UACC-62 melanoma = tested on: UACC-62 melanoma
PC-3 prostate = tested on: PC-3 prostate
SNB-75 CNS = tested on: SNB-75 CNS
OVCAR-3 ovarian = tested on: OVCAR-3 ovarian
K-562 leukemia = tested on: K-562 leukemia
CAKI-1 renal = tested on: CAKI-1 renal
MDA-MB-435 = tested on: MDA-MB-435
HOP-92 NSCLC = tested on: HOP-92 NSCLC
M14 melanoma = tested on: M14 melanoma
BT-549 breast = tested on: BT-549 breast
MOLT-4 leukemia = tested on: MOLT-4 leukemia
MDA-MB-231 breast = tested on: MDA-MB-231 breast
MALME-3M melanoma = tested on: MALME-3M melanoma
T-47D breast = tested on: T-47D breast
786-0 renal = tested on: 786-0 renal
SF-268 CNS = tested on: SF-268 CNS
SK-OV-3 ovarian = tested on: SK-OV-3 ovarian
UO-31 renal = tested on: UO-31 renal
SF-295 CNS = tested on: SF-295 CNS
COLO 205 colon = tested on: COLO 205 colon
SN12C renal = tested on: SN12C renal
SNB-19 CNS = tested on: SNB-19 CNS
RPMI-8226 leukemia = tested on: RPMI-8226 leukemia
NCI/ADR-RES ovarian = tested on: NCI/ADR-RES ovarian
A498 renal = tested on: A498 renal
U251 CNS = tested on: U251 CNS
HCT-116 colon = tested on: HCT-116 colon
NCI-H522 lung = tested on: NCI-H522 lung
RXF 393 renal = tested on: RXF 393 renal
NCI-H226 lung = tested on: NCI-H226 lung
CCRF-CEM leukemia = tested on: CCRF-CEM leukemia

CC(=O)Oc1c(C)c2c(c3ncccc13)OC(C)C2 (stereo not drawn)
TGI (SK-MEL-5 melanoma): 27.5 µM | TGI (SW-620 colon): 27.2 µM | TGI (SF-539 CNS): 28.7 µM | TGI (SK-MEL-2 melanoma): 40.1 µM | TGI (OVCAR-8 ovarian): 27.5 µM | TGI (TK-10 renal): 49.2 µM | TGI (HCT-15 colon): 24.5 µM | TGI (KM12 colon): 28.7 µM | TGI (EKVX NSCLC): 30.8 µM | TGI (NCI-H23 lung): 32.9 µM | TGI (UACC-257 melanoma): 28.6 µM | TGI (OVCAR-4 ovarian): 29.9 µM | TGI (SR leukemia): 22.7 µM | TGI (MCF7 breast): 32.5 µM | TGI (DU-145 prostate): 29.8 µM | TGI (HCC-2998 colon): 28.7 µM | TGI (HL-60(TB) leukemia): 38.8 µM | TGI (OVCAR-5 ovarian): 31 µM | TGI (NCI-H460 lung): 22.7 µM | TGI (A549 NSCLC): 26.2 µM | TGI (SK-MEL-28 melanoma): 26.8 µM | TGI (ACHN renal): 24.5 µM | TGI (IGROV1 ovarian): 20.1 µM | TGI (HT29 colon): 36.8 µM | TGI (HOP-62 NSCLC): 30.9 µM | TGI (MDA-N): 32.3 µM | TGI (HS 578T breast): 59.4 µM | TGI (UACC-62 melanoma): 24.6 µM | TGI (PC-3 prostate): 92.1 µM | TGI (SNB-75 CNS): 28 µM | TGI (OVCAR-3 ovarian): > 100 µM | TGI (K-562 leukemia): 35.5 µM | TGI (CAKI-1 renal): 27.8 µM | TGI (MDA-MB-435): 19 µM | TGI (HOP-92 NSCLC): 28.2 µM | TGI (M14 melanoma): 28.5 µM | TGI (BT-549 breast): 35.6 µM | TGI (MOLT-4 leukemia): 25.9 µM | TGI (MDA-MB-231 breast): 26.2 µM | TGI (MALME-3M melanoma): 30.2 µM | TGI (T-47D breast): 34.8 µM | TGI (786-0 renal): 26.7 µM | TGI (SF-268 CNS): 28.8 µM | TGI (SK-OV-3 ovarian): 54.2 µM | TGI (UO-31 renal): 28.4 µM | TGI (SF-295 CNS): 28.5 µM | TGI (COLO 205 colon): 35.7 µM | TGI (SN12C renal): 30.1 µM | TGI (SNB-19 CNS): > 100 µM | TGI (RPMI-8226 leukemia): 45.1 µM | TGI (NCI/ADR-RES ovarian): 35.9 µM | TGI (A498 renal): 58.3 µM | TGI (U251 CNS): 28.8 µM | TGI (HCT-116 colon): 32.3 µM | TGI (NCI-H522 lung): 15.4 µM | TGI (RXF 393 renal): 30.9 µM | TGI (NCI-H226 lung): 32.8 µM | TGI (CCRF-CEM leukemia): 38.5 µM
